Reference: publication PMC10800023 (Human Molecular Genetics, 2023)
“And” between values parts separate entries of the source, which are not always exact repeats. Identical values can stand only once.

Tests used:
[1] = human, 0.9 mg/kg, ref FDA 208684,208685Orig1s000ClinPharmR.pdf, cited from earlier work
P-gp (MDR1) = test: MDR1-MDCK permeability / P-gp efflux assay; details: MDCK-MDR1, pH 7.4
Protocol: (§1) To measure transport by P-gp, Madin-Darby canine kidney (MDCK) cells that had been transfected with the human P-gp (MDR1) gene were plated in a Transwell plate and cultured until polarized. MDCK cells that are not transfected with human P-gp were used as a control. Compounds were added to either the apical or the basolateral side of the cells, and transport across the membrane was measured.
(§2) Testing for permeability and MDR1 substrate assessment was done in MDCK cells transfected to overexpress human MDR1 gene that encodes efflux transporter protein (P-gp). […] Briefly, cells were maintained in Dulbecco’s modified Eagle medium (DMEM) with 10% fetal bovine serum and 1% penicillin/streptomycin in a humidified incubator at 37°C with 5% CO2. The study was performed by Absorption Systems (now Pharmaron; Exton, PA). The MDR1-MDCK and MDCK control cell lines were seeded into 12-well plates for 7 days. Integrity of monolayer tight junctions was monitored preincubation by transepithelial electrical resistance (TEER) measurement. […] The samples were withdrawn at t = 0 and 60 min from the receiver and donor compartments. Compound levels were measured by LC/MS–MS. Additionally, post-assay, cell monolayer integrity was checked with Lucifer Yellow permeability measurement. Transport assay low- and high-permeability control compounds were run in parallel for assay validation. Papp values were calculated considering compound concentrations across the monolayer and cell surface area. Efflux ratios were calculated based on Papp B > A over Papp A > B. The difference between the MDR1-MDCK and the MDCK cell efflux ratios was also calculated. […] Compounds were classified by Absorption Systems/Pharmaron as follows: […]

human P-gp (MDR1) = test: MDR1-MDCK permeability / P-gp efflux assay; details: for Differences between ratios: MDR1-MDCK minus MDCK efflux ratio
Protocol: as §1, §2

[2] = DBA/2 J, mouse, in vivo
Protocol: The brain-to-plasma ratio was then calculated using the area under the curve (AUC) for brain exposure and the AUC for plasma exposure.

B10-mdx mice [3] = test: RNA-sequencing of tissues after 2 weeks of treatment (Study 1); details: vs vehicle-treated B10-mdx
Description: To evaluate short-term changes, after 2 weeks of treatment, the mice were euthanized, and brain, muscle, and liver tissue collected for RNA-sequencing (RNA-seq) analysis to evaluate the number of changes in gene expression in the muscle, liver, and brain.
Brain, muscle, and liver were collected for RNAseq. The number of animals per group was as follows: WT, n = 15; B10-mdx, n = 11; corticosteroid-treated groups, n = 10–12.

[4] = MDCK control cell permeability (not transfected with human P-gp); details: dog, pH 7.4
Protocol: as §1, §2

B10-mdx mice [5] = test: Four-limb grip strength (Study 2); assay type: in vivo, mouse; details: 4 weeks of treatment, not complete, not dose dependent
Protocol: After 4 weeks of treatment, muscle strength was evaluated using a grip strength meter.
(§3) Study 2: The goal of the second study was to evaluate corticosteroid side effects and efficacy in a longer study (4 months). After 28 days of dosing, mice were tested for depression-like behavior using a measure of corticosteroid-induced depression (FST followed by TST). Muscle function was tested via grip strength. Tests for depression and for grip-strength were done in a blinded manner. After 4 months, mice were euthanized, and tissues were collected. Bone from whole left leg was collected for micro-CT analysis. The number of animals per group was as follows: WT, n = 16; B10-mdx, n = 15; corticosteroid-treated groups, n = 8–10.
A four-limb grip strength meter from Bioseb was used to determine the maximal peak force (g) developed by the mouse when the examiner tried to pull it out of a specially designed grid for mice (Bioseb, BIO-GS3 & BIO-GRIPGS). The examiner was blinded, and a total of 5 measurements were applied to each mouse, 1–2 min between measurements. The average of the 5 values was used for subsequent calculations.

B10-mdx mice [6] = test: Tail-suspension test 24 h after force-swim test (Study 2); assay type: in vivo, mouse; details: daily dosing 4 weeks, doses tested (deflazacort 1.25-15 mg/kg; vamorolone all doses 15, 30, 45 mg/kg), vs vehicle B10-mdx
Protocol: Corticosteroid-treated mice were subjected to the force-swim test (FST) followed by the tail-suspension test (TST) 24 h later. During the TST, normal mice will struggle and constantly move. However, mice show depression-like behavior by quickly giving up, stop moving, and remaining still for a greater percentage of the time.
as §3
• 1) Force-swim test: Animals were single housed and acclimated in the behavior room for 30 min prior to test. A clean 1-L beaker was filled with 700 to 800 ml of 23°C water. Each mouse was placed into the water for 6 min. The total immobility time was recorded. After the test, the animals were dried and placed in a cage on a heating pad for about 10 min before returning to the home cages. • 2) Tail-suspension test: Isolated mice were suspended 50 cm above the floor by surgical tape placed approximately 1 cm from the tip of the tail for 6 min. The total immobility time of mice was measured. Mice were considered immobile only when they hung passively and completely motionless.

- Papp at 60 min (P-gp (MDR1)): < 3 ×10⁻⁶ cm/s
- efflux ratio at 60 min, 1 μM (P-gp (MDR1)): 60.2
- efflux ratio at 60 min, 10 μM (P-gp (MDR1)): 58.4
- Basolateral to Apical MDR1-MDCK (human P-gp (MDR1); 1 μM): 62.60 10 ^ −6 cm/s
- Differences between ratios (human P-gp (MDR1); 1 μM): 59
- Apical to Basolateral MDR1-MDCK (human P-gp (MDR1); 10 μM): 1.07 10 ^ −6 cm/s
- Differences between ratios (human P-gp (MDR1); 10 μM): 57
- brain penetration classification (human P-gp (MDR1); 1 and 10 μM, from Papp (A-to-B) and efflux ratio): low
- Papp A→B at 60 min, 1 μM (human P-gp (MDR1); dog, MDCK-MDR1, pH 7.4): 1.04 ×10⁻⁶ cm/s
- Papp B→A at 60 min, 10 μM (human P-gp (MDR1); dog, MDCK-MDR1, pH 7.4): 62.6 ×10⁻⁶ cm/s
- predicted AUC in mice [2]: 446 ng·h/mL
- predicted Cmax in mice [2]: 267.5 ng/mL
- Papp A→B at 60 min, 1 μM [4]: 12.3 ×10⁻⁶ cm/s
- Papp A→B at 60 min, 10 μM [4]: 6.66 ×10⁻⁶ cm/s
- Papp B→A at 60 min, 1 μM [4]: 11.6 ×10⁻⁶ cm/s
- Papp B→A at 60 min, 10 μM [4]: 6.7 ×10⁻⁶ cm/s
- efflux ratio at 60 min, 1 μM [4]: 0.949
- efflux ratio at 60 min, 10 μM [4]: 1.01
- immobilization time in tail suspension test (B10-mdx mice [6]): did not increase
Structure (SMILES): CC(=O)OCC(=O)[C@@]12N=C(C)O[C@@H]1C[C@H]1[C@@H]3CCC4=CC(=O)C=C[C@]4(C)[C@H]3[C@@H](O)C[C@@]12C [Deflazacort]
- Cmax [1]: 329 ng/mL
- AUC (Day 1) ([1]; listed as Emflaza): 567 ng·h/mL and 630 ng·h/mL
- Number of genes, Quadriceps, Down-regulated (B10-mdx mice [3]; 1.25 mg/kg daily): 4245
- Number of genes, Quadriceps, No Change (B10-mdx mice [3]; 1.25 mg/kg daily): 7767
- Number of genes, Quadriceps, Up-regulated (B10-mdx mice [3]; 1.25 mg/kg daily): 4298
- Number of genes, Whole Brain, Down-regulated (B10-mdx mice [3]; 1.25 mg/kg daily): 31
- Number of genes, Whole Brain, Up-regulated (B10-mdx mice [3]; 1.25 mg/kg daily): 1
- Number of genes, Quadriceps, Down-regulated (B10-mdx mice [3]; 2.5 mg/kg daily): 3706
- Number of genes, Quadriceps, No Change (B10-mdx mice [3]; 2.5 mg/kg daily): 9024
- Number of genes, Quadriceps, Up-regulated (B10-mdx mice [3]; 2.5 mg/kg daily): 3580
- Number of genes, Whole Brain, Down-regulated (B10-mdx mice [3]; 2.5 mg/kg daily): 4
- Number of genes, Whole Brain, No Change (B10-mdx mice [3]; 2.5 mg/kg daily): 16306
- Number of genes, Whole Brain, Up-regulated (B10-mdx mice [3]; 2.5 mg/kg daily): 0
- Number of genes, Quadriceps, Down-regulated (B10-mdx mice [3]; 5 mg/kg daily): 5354
- Number of genes, Quadriceps, No Change (B10-mdx mice [3]; 5 mg/kg daily): 4889
- Number of genes, Quadriceps, Up-regulated (B10-mdx mice [3]; 5 mg/kg daily): 6067
- Number of genes, Whole Brain, Down-regulated (B10-mdx mice [3]; 5 mg/kg daily): 39
- Number of genes, Whole Brain, No Change (B10-mdx mice [3]; 5 mg/kg daily): 16214
- Number of genes, Whole Brain, Up-regulated (B10-mdx mice [3]; 5 mg/kg daily): 57
- Number of genes, Quadriceps, Down-regulated (B10-mdx mice [3]; 15 mg/kg daily): 5462
- Number of genes, Quadriceps, No Change (B10-mdx mice [3]; 15 mg/kg daily): 5024
- Number of genes, Quadriceps, Up-regulated (B10-mdx mice [3]; 15 mg/kg daily): 5824
- Number of genes, Whole Brain, Down-regulated (B10-mdx mice [3]; 15 mg/kg daily): 231
- Number of genes, Whole Brain, No Change (B10-mdx mice [3]; 15 mg/kg daily): 15981
- Number of genes, Whole Brain, Up-regulated (B10-mdx mice [3]; 15 mg/kg daily): 98
- grip strength (B10-mdx mice [5]): showed some protection from loss of grip strength
